{"source": "patent US20210161189A1", "about": "“MONOESTER SUGAR DERIVATIVES AS FLAVOR MODIFIERS” (Firmenich SA, priority 2018, published 2021)", "key": {"sensory panel [1]": {"test_system": "sensory panel", "experiment": "Sensory panel, raspberry flavored water", "assay_type": "in vivo, human", "parameters": "scale not given here", "conditions": "panel score", "procedure": "[…] In parallel, a control composition, comprising raspberry flavored water was also generated. A sensory panel consisting of between 6 to 8 persons compared the overall flavor, sweetness, acidity, bitterness, astringency, off-notes, and long-lastingness of the sweetness of the test composition and the control composition. The results were analyzed using the Duncan comparison test."}, "sensory panel [2]": {"test_system": "sensory panel", "experiment": "Sensory panel, pomegranate juice", "assay_type": "in vivo, human", "conditions": "100 ppm in pomegranate juice; panel score", "procedure": "Next, glucose-6-O-octanoate was added to a pomegranate juice composition, to result in a final concentration of 100 ppm in the test composition. In parallel, a control composition, comprising pomegranate juice was also generated. A sensory panel consisting of between 6 to 8 persons compared the overall flavor, sweetness, acidity, bitterness, astringency, off-notes, and long-lastingness of the sweetness of the test composition and the control composition. The results were analyzed using the Duncan comparison test."}, "sensory panel [3]": {"test_system": "sensory panel", "experiment": "Sensory panel, coffee composition (Emmi Noir coffee, containing milk)", "assay_type": "in vivo, human", "conditions": "200 ppm in coffee containing milk; panel score", "procedure": "Next, glucose-6-O-octanoate was added to a coffee composition (Emmi Noir coffee, containing milk), to result in a final concentration of 200 ppm in the test composition. In parallel, a control composition, comprising Emmi Noir coffee, containing milk was also generated. A sensory panel consisting of between 6 to 8 persons compared the overall flavor, sweetness, acidity, bitterness, astringency, off-notes, and long-lastingness of the sweetness of the test composition and the control composition. The results were analyzed using the Duncan comparison test."}, "sensory panel [4]": {"test_system": "sensory panel", "experiment": "Sensory panel, energy drink", "assay_type": "in vivo, human", "parameters": "scale not given here", "conditions": "panel score", "procedure": "[…] In parallel, a control energy drink composition was also generated. A sensory panel consisting of between 6 to 8 persons compared the overall flavor, sweetness, acidity, bitterness, astringency, off-notes, and long-lastingness of the sweetness of the test composition and the control composition. The results were analyzed using the Duncan comparison test."}, "β-Lactoglobulin layer": {"target": "T1, β-Lactoglobulin layer (Bos taurus, UniProt P02754)", "T1 sequence (P02754 17-178)": "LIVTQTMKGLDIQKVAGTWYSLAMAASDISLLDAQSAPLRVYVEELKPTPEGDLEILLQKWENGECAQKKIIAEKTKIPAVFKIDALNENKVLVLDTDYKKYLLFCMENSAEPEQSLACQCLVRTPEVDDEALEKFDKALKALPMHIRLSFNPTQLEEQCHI", "experiment": "QCM-D mass adsorption of BWAT Raspberry water films on a protein layer", "assay_type": "physicochemical", "conditions": "for mass/area: mass absorption on protein layer", "description": "Quartz Crystal Microbalance with Dissipation monitoring (QCM-D) is a real-time, nanoscale technique for monitoring and characterizing thin films on surfaces as well for analyzing surface phenomena including thin film formation, adsorption, desorption, molecular interactions, reactions and structural properties. In this way, the QCM operates as a very sensitive balance.\nA QCM sensor consists of a thin quartz disc sandwiched between a pair of electrodes. Due to the piezoelectric properties of quartz, it is possible to excite the crystal to oscillation by applying an AC voltage across its electrodes. Normally the electrodes are made of gold, which can be coated with a wide range of different materials. The resonance frequency (f) of the sensor depends on the total oscillating mass, including water coupled to the oscillation. When a thin film is attached to the sensor, the frequency decreases. If the film is thin and rigid the decrease in frequency is proportional to the mass of the film. Frequency monitoring gives information about mass changes and thickness of adsorbed film. Adsorbed films dampen the sensor's oscillation. […] Therefore dissipation is related to the rigidity of the adsorbed film.\nThis technique was used to analyse the properties of adsorbed BWAT Raspberry water films on a β-Lactoglobulin layer in order to compare the obtained physico-chemical data to the sensory data mentioned beforehand. β-Lactoglobulin was used in order to mimic the protein layer in the oral cavity.\nThe measurements were done as duplicates. First a protein layer was adsorbed on the quartz crystal. As soon as equilibrium is obtained, the excessive protein layer was rinsed with Millipore water in order to create a homogenous protein monolayer. Ensuing, the Raspberry water was left to rinse over the protein layer—frequency changes and energy dissipation were monitored during a time lapse of 10 min. A last rinsing step with Millipore was conducted.\nTo understand the role of glucose-6-O-octanoate (G60) as astringency/bitterness modulator the following solutions were investigated on their adsorption behavior."}, "sensory panel [5]": {"test_system": "sensory panel", "experiment": "Sensory panel, dairy test composition (milk sweetened with 3% w/v sucrose)", "assay_type": "in vivo, human", "conditions": "100 ppm in milk sweetened with 3% sucrose; panel score", "procedure": "Glucose-6-O-octanoate, manufactured according to the methods described in Example 1 above was added to a dairy test composition (milk sweetened with 3% w/v sucrose), to result in a final concentration of 100 ppm in the test composition. In parallel, a control composition, comprising milk sweetened with 3% w/v sucrose was also generated. A sensory panel consisting of between 6 to 8 persons compared the overall flavor, sweetness, acidity, bitterness, astringency, off-notes, and long-lastingness of the sweetness of the dairy test composition containing 100 ppm glucose-6-O-octanoate and the control composition. The results were analyzed using the Duncan comparison test."}, "sensory panel [6]": {"test_system": "sensory panel", "experiment": "Sensory panel, orange flavored test composition", "assay_type": "in vivo, human", "conditions": "200 ppm in orange flavored test composition, panel score", "procedure": "Next, glucose-6-O-octanoate was added to an orange flavored test composition, to result in a final concentration of 200 ppm in the test composition. In parallel, a control composition, comprising orange flavor was also generated. A sensory panel consisting of between 6 to 8 persons compared the overall flavor, sweetness, acidity, bitterness, astringency, off-notes, and long-lastingness of the sweetness of the test composition and the control composition. The results were analyzed using the Duncan comparison test."}}}
{"smiles": "CCCCCCCC(=O)OC[C@@H](O)[C@@H](O)[C@H](O)[C@@H](O)C=O", "note": "[glucose-6-O-octanoate]", "values": [{"measurement": "Astringency", "setting": "sensory panel [1]; 100 ppm in raspberry water", "value": 0.58}, {"measurement": "Bitterness", "setting": "sensory panel [1]; 100 ppm in raspberry water", "value": 0.5}, {"measurement": "Long-Lasting", "setting": "sensory panel [1]; 100 ppm in raspberry water", "value": 0.67}, {"measurement": "Overall Flavor", "setting": "sensory panel [1]; 100 ppm in raspberry water", "value": 3.33}, {"measurement": "Sweetness", "setting": "sensory panel [1]; 100 ppm in raspberry water", "value": 3.42}, {"measurement": "Acidity", "setting": "sensory panel [1]; 200 ppm in raspberry water", "value": 2.62}, {"measurement": "Long-Lasting", "setting": "sensory panel [1]; 200 ppm in raspberry water", "value": 1.81}, {"measurement": "Overall Flavor", "setting": "sensory panel [1]; 200 ppm in raspberry water", "value": 3.06}, {"measurement": "Sweetness", "setting": "sensory panel [1]; 200 ppm in raspberry water", "value": 2.69}, {"measurement": "Long-Lasting", "setting": "sensory panel [2]", "value": 1.75}, {"measurement": "Off-notes", "setting": "sensory panel [2]", "value": 0.62}, {"measurement": "Overall Flavor", "setting": "sensory panel [2]", "value": 3.38}, {"measurement": "Acidity", "setting": "sensory panel [3]", "value": 0.17}, {"measurement": "Bitterness", "setting": "sensory panel [3]", "value": 1.92}, {"measurement": "Long-lasting (sweet)", "setting": "sensory panel [3]", "value": 1.83}, {"measurement": "Off-notes", "setting": "sensory panel [3]", "value": 0.33}, {"measurement": "Overall Flavor", "setting": "sensory panel [3]", "value": 3.17}, {"measurement": "Acidity", "setting": "sensory panel [4]; 100 ppm in energy drink", "value": 2.17}, {"measurement": "Astringency", "setting": "sensory panel [4]; 100 ppm in energy drink", "value": 0.67}, {"measurement": "Bitterness", "setting": "sensory panel [4]; 100 ppm in energy drink", "value": 0.83}, {"measurement": "Long-Lasting", "setting": "sensory panel [4]; 100 ppm in energy drink", "value": 2}, {"measurement": "Overall Flavor", "setting": "sensory panel [4]; 100 ppm in energy drink", "value": 3.33}, {"measurement": "Acidity", "setting": "sensory panel [4]; 200 ppm in energy drink", "value": 2.5}, {"measurement": "Astringency", "setting": "sensory panel [4]; 200 ppm in energy drink", "value": 0.29}, {"measurement": "Bitterness", "setting": "sensory panel [4]; 200 ppm in energy drink", "value": 0.93}, {"measurement": "Off-notes", "setting": "sensory panel [4]; 200 ppm in energy drink", "value": 0.21}, {"measurement": "Overall Flavor", "setting": "sensory panel [4]; 200 ppm in energy drink", "value": 3.5}, {"measurement": "Mass adsorption versus control sample", "setting": "β-Lactoglobulin layer; BWAT raspberry water in presence of G60", "value": "higher mass adsorption compared to the control sample"}, {"measurement": "mass/area", "setting": "β-Lactoglobulin layer; BWAT w/ 200 ppm G60", "value": 1257, "unit": "ng/cm^2"}, {"measurement": "mass/area", "setting": "β-Lactoglobulin layer; BWAT w/ 1000 ppm G60", "value": 1194, "unit": "ng/cm^2"}, {"measurement": "Amount of rinsed away mass", "setting": "β-Lactoglobulin layer; over the 10 min of mass adsorption monitoring, dependence on G60 concentration", "value": "The higher the G60 concentration the lower is the amount of rinsed away mass"}, {"measurement": "Acidity", "setting": "sensory panel [5]", "value": 0}, {"measurement": "Astringency", "setting": "sensory panel [5]", "value": 0.6}, {"measurement": "Bitterness", "setting": "sensory panel [5]", "value": 0.8}, {"measurement": "Long-Lasting", "setting": "sensory panel [5]", "value": 1.4}, {"measurement": "Overall Flavor", "setting": "sensory panel [5]", "value": 1.8}, {"measurement": "Acidity", "setting": "sensory panel [6]", "value": 2.07}, {"measurement": "Astringency", "setting": "sensory panel [6]", "value": "decreasing"}, {"measurement": "Bitterness", "setting": "sensory panel [6]", "value": "decreasing the perceived bitterness"}, {"measurement": "Long-Lasting", "setting": "sensory panel [6]", "value": 0.29}, {"measurement": "Off-notes", "setting": "sensory panel [6]", "value": 0.14}, {"measurement": "Overall Flavor", "setting": "sensory panel [6]", "value": 3}, {"measurement": "Sweetness", "setting": "sensory panel [6]", "value": 2.79}, {"measurement": "Astringency", "setting": "sensory panel [6]; listed as 71007", "value": 1, "unit": "B"}, {"measurement": "Bitterness", "setting": "sensory panel [6]; listed as 71007", "value": 1.07, "unit": "B"}]}
